Source: ChEMBL document CHEMBL1201862, “PubChem BioAssay data set” (2004)
Each block holds one compound with its values, some of them ahead of it. The source made the active and inactive calls.

Tests used:
Bcl-2-like protein 10 = Bcl-2-like protein 10 (Homo sapiens, UniProt Q9HD36); assay: Bcl-B/TR3 peptide binding disruption – biochemical, fluorescence polarization, FITC-TR3 peptide, selectivity assay for Bfl-1 inhibitor project, primary screen (AID 748);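 also: fluorescence polarization from a fluorescein-labelled TR3 peptide binding purified Bcl-B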
[1] = target: DNA dC->dU-editing enzyme APOBEC-3A (Homo sapiens, UniProt P31941); assay: A3A deaminase inhibition for selectivity – biochemical, dose response (AID 504722); format: functional
[2] = target: DNA dC->dU-editing enzyme APOBEC-3G (Homo sapiens, UniProt Q9HC16); assay: Dose Response confirmation of small molecule APOBEC3G DNA Deaminase Inhibitors via a fluorescence-based single-stranded DNA deaminase assay. [Related pubchem assays (depositor defined):AID493012, AID493028]; format: functional
[3] = target: T1, Voltage-gated N-type calcium channel alpha-1B subunit/Amyloid beta A4 precursor protein-binding family A member 1 (Homo sapiens, UniProt Q00975+Q02410); format: protein assay
Large T antigen = Large T antigen (Simian virus 40, UniProt P03070); format: functional, Betapolyomavirus macacae;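 also: Confirmatory-stage PubChem screen for compounds that inhibit SV40 T antigen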
[4] = target: T1, Voltage-gated N-type calcium channel alpha-1B subunit/Amyloid beta A4 precursor protein-binding family A member 1; format: protein assay; remark: listed apart in the source
[5] = target: Induced myeloid leukemia cell differentiation protein Mcl-1 (Homo sapiens, UniProt Q07820); format: functional
[6] = target: T2, Eukaryotic translation initiation factor 2-alpha kinase 3 (Homo sapiens, UniProt Q9NZJ5); assay: Dose response cell-based high-throughput screening assay to measure PERK inhibition. [Related pubchem assays: 1416 ]; format: functional
T2 sequence (Q9NZJ5 whole entry): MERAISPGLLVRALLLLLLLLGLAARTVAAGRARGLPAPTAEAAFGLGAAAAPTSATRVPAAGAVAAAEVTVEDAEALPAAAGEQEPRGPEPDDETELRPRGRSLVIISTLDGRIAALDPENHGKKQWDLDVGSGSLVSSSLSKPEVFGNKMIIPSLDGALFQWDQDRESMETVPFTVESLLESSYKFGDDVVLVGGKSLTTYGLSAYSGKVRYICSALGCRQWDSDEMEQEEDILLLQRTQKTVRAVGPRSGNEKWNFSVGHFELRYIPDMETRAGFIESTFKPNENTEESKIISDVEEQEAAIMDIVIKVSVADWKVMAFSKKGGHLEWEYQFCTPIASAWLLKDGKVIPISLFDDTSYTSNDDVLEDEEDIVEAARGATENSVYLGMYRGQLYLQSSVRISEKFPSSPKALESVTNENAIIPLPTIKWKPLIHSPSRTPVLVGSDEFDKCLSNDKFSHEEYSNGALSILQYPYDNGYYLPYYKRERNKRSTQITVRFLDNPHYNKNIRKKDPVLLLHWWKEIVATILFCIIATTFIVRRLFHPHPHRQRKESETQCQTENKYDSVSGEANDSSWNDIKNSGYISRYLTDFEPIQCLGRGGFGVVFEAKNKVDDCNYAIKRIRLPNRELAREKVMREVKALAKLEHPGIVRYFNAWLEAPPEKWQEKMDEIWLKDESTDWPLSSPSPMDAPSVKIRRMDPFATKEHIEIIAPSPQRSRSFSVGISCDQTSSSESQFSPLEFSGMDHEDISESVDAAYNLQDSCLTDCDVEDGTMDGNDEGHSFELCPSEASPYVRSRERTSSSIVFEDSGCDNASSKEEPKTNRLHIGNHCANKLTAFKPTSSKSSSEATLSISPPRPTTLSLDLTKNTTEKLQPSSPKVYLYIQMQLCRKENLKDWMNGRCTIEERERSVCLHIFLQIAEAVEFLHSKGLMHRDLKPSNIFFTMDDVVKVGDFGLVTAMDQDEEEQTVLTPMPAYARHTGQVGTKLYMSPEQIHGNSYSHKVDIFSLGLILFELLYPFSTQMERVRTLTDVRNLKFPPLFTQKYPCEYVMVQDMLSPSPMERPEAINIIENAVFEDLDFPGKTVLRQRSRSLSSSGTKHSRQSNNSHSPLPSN

[7] = target: T2, Eukaryotic translation initiation factor 2-alpha kinase 3; assay: Counterscreen assay for PERK inhibitors: Dose response cell-based high throughput screening assay to measure inhibition of PERK at 6 hours. [Related pubchem assays: 1522, 1416 ]; format: functional
[8] = target: G-protein coupled receptor 55 (Homo sapiens, UniProt Q9Y2T6); assay: selective activators of receptor GPR55 – imaging, U2OS cells, beta-arrestin-GFP redistribution, primary screen (AID 1961); format: functional
Paired box protein Pax-8 = Paired box protein Pax-8 (Homo sapiens, UniProt Q06710); assay: PAX8 transcriptional activity inhibition in RMG-I – RMG-I cells, luciferase, cherry-pick, dose response (AID 687027); format: functional, cell-based;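 also: luciferase reporter driven by Pax8 target thyroperoxidase promoter measured by SteadyGlo luminescence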
[9] = target: Eukaryotic translation initiation factor 4E (Mus musculus, UniProt P63073); assay: blockers of eIF4G binding by eIF4E – biochemical, TR-FRET, dose response (AID 855); format: functional;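 also: potency for disrupting eIF4E binding to eIF4GI seen as loss of FRET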
[10] = target: T3, Rac GTPase-activating protein 1 (Homo sapiens, UniProt Q9H0H5); assay: blockers of MgcRacGAP-driven Rac1 GTP hydrolysis – biochemical, ADP Hunter fluorescence, primary and confirmatory, confirmation (AID 624330); format: functional
T3 sequence (Q9H0H5 whole entry): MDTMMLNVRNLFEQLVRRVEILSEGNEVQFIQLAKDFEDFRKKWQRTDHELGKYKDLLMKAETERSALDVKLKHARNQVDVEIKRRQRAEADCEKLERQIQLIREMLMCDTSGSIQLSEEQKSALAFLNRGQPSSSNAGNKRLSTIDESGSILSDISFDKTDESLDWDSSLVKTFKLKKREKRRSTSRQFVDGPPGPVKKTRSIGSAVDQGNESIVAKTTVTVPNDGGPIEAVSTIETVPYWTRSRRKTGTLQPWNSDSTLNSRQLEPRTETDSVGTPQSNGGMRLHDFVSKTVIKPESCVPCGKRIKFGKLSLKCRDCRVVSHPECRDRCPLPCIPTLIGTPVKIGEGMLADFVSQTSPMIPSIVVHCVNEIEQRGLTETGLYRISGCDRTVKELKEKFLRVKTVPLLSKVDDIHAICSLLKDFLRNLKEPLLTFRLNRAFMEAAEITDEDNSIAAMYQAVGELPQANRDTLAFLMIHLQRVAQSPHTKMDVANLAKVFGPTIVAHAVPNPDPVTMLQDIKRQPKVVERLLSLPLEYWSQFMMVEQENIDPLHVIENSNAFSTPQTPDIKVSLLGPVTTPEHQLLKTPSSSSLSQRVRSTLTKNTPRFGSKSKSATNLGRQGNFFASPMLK

[11] = target: Melanin-concentrating hormone receptor 1 (Homo sapiens, UniProt Q99705); assay: Late-stage fluorescence-based counterscreen for antagonists of the G-protein coupled receptor 7 (GPR7): cell-based dose response assay to identify antagonists of the melanin-concentrating hormone receptor 1 (MCHR1). [Related pubchem assays (depositor defined):AID1861, AID1880, AID1952, AID2148, AID2251, AID2257, AID485339]; format: functional;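 also: stimulated with 30 nM MCH peptide agonist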
[12] = target: Transitional endoplasmic reticulum ATPase (Homo sapiens, UniProt P55072, C522A); assay: C522A mutant p97 ATPase inhibitors, dose response, counter-screen for p97 inhibitor project, biochemical, luminescence (AID 1544)
[13] = target: Transitional endoplasmic reticulum ATPase (Homo sapiens, UniProt P55072); assay: p97 ATPase inhibitors, dose response, biochemical (AID 1534)
HeLa = assay: Cytotoxicity counterscreen assay for transcriptional activators of heat shock protein 70 (Hsp70). [Related pubchem assays: 1203, 1252 ]; format: functional; settings: Homo sapiens;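 also: cells exposed to compound for 16 hours before readout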
HEK293 [14] = assay: inhibition of NOD1-driven NF-kB reporter – cell-based, luminescence, uHTS, primary screen (AID 1578); format: functional; settings: Homo sapiens
[15] = test system: Streptococcus sp. 'group A'; assay: Streptococcus pyogenes SK(-)GAS viability under kanamycin – luminescence, BacTiterGlo, confirmation, counter-screen for streptokinase expression inhibitor project, dose response (AID 1900); format: functional, organism-based
HEK293 [16] = assay: cells; format: functional, cell-based; settings: Homo sapiens
HEK293 [17] = assay: cells; format: functional, cell-based; settings: Homo sapiens; remark: listed apart in the source
[18] = target: T4, Nucleotide-binding oligomerization domain-containing protein 2 (Homo sapiens, UniProt Q9HC29); assay: inhibition of NOD2-driven NF-kB reporter – cell-based, luminescence, uHTS, HEK293 (AID 1566); format: functional
HEK293 [19] = assay: NOD2 signaling inhibitors in MDP-stimulated cells, cell-based, uHTS, luminescence (AID 2001); format: functional; settings: Homo sapiens
HEK293 [20] = assay: cells; format: functional, cell-based; settings: Homo sapiens; remark: listed apart in the source
Streptococcus = assay: GAS UMAA2166 growth inhibition – luminescence, BacTiterGlo, counter-screen for streptokinase expression inhibitor project, dose response (AID 1915); format: functional, organism-based;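 also: potency for reduction of bacterial viability or growth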
Tumor necrosis factor = Tumor necrosis factor (Homo sapiens, UniProt P01375); assay: analog potency on TNFa NF-kB signaling – cell-based, revised, SAR follow-up (AID 2337); format: functional
[21] = target: T5, Nucleotide-binding oligomerization domain-containing protein 1 (Homo sapiens, UniProt Q9Y239); assay: blockers of NOD1 pathway activity – revised, SAR follow-up (AID 2333); format: functional
T5 sequence (Q9Y239 whole entry): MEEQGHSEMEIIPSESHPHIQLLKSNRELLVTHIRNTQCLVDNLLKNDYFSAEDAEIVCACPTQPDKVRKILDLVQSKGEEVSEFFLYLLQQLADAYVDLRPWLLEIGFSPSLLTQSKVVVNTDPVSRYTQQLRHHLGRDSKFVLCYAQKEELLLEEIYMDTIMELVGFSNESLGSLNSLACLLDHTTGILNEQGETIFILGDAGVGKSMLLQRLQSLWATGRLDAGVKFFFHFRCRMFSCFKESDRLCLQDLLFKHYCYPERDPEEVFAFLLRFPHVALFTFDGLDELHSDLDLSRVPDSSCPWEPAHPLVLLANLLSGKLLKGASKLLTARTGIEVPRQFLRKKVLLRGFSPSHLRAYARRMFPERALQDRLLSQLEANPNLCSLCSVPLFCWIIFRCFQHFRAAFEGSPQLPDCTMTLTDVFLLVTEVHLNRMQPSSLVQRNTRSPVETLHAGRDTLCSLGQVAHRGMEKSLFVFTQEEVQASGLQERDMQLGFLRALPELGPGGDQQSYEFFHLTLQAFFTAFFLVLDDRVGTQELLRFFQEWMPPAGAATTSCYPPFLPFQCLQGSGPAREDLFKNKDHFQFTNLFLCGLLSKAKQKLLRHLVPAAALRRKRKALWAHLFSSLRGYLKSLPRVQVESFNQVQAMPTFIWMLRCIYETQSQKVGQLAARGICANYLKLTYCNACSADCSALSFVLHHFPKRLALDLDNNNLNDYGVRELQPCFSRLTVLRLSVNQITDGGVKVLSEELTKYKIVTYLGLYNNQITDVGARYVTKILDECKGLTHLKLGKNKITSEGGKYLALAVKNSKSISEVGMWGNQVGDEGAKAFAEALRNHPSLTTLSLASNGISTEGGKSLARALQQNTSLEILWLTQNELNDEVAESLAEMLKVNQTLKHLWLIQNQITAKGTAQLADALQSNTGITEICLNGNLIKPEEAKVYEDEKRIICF

[22] = target: T4, Nucleotide-binding oligomerization domain-containing protein 2; assay: PubChem AID 2334; format: functional
HEK293 [23] = assay: cells; settings: Homo sapiens

T4 sequence (Q9HC29 whole entry, the tested form may be a part): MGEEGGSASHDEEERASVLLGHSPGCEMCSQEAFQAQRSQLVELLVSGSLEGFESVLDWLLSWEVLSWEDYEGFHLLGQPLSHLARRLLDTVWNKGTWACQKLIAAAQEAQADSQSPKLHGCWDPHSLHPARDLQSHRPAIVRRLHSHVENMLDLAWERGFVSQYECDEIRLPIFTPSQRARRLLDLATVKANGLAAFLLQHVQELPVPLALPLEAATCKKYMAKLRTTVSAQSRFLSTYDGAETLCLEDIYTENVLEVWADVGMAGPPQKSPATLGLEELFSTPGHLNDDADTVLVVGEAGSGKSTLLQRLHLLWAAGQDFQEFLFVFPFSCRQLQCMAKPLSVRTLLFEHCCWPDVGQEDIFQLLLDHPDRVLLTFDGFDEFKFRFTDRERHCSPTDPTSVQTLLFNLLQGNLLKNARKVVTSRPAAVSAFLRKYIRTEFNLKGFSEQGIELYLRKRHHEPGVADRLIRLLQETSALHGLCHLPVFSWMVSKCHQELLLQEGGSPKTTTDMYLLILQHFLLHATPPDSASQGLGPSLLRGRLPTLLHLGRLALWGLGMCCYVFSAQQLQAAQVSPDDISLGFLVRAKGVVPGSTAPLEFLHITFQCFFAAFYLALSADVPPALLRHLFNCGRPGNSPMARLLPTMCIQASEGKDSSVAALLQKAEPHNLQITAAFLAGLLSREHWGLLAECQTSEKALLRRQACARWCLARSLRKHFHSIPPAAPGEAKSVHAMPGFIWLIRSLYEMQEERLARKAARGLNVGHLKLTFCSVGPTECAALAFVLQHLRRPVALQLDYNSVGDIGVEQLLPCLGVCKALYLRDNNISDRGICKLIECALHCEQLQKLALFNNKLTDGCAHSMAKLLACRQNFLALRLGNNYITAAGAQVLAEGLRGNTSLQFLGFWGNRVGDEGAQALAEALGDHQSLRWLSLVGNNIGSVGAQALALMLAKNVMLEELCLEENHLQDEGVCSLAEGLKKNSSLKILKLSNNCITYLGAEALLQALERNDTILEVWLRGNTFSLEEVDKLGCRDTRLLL
T1 sequence (Q00975 whole entry): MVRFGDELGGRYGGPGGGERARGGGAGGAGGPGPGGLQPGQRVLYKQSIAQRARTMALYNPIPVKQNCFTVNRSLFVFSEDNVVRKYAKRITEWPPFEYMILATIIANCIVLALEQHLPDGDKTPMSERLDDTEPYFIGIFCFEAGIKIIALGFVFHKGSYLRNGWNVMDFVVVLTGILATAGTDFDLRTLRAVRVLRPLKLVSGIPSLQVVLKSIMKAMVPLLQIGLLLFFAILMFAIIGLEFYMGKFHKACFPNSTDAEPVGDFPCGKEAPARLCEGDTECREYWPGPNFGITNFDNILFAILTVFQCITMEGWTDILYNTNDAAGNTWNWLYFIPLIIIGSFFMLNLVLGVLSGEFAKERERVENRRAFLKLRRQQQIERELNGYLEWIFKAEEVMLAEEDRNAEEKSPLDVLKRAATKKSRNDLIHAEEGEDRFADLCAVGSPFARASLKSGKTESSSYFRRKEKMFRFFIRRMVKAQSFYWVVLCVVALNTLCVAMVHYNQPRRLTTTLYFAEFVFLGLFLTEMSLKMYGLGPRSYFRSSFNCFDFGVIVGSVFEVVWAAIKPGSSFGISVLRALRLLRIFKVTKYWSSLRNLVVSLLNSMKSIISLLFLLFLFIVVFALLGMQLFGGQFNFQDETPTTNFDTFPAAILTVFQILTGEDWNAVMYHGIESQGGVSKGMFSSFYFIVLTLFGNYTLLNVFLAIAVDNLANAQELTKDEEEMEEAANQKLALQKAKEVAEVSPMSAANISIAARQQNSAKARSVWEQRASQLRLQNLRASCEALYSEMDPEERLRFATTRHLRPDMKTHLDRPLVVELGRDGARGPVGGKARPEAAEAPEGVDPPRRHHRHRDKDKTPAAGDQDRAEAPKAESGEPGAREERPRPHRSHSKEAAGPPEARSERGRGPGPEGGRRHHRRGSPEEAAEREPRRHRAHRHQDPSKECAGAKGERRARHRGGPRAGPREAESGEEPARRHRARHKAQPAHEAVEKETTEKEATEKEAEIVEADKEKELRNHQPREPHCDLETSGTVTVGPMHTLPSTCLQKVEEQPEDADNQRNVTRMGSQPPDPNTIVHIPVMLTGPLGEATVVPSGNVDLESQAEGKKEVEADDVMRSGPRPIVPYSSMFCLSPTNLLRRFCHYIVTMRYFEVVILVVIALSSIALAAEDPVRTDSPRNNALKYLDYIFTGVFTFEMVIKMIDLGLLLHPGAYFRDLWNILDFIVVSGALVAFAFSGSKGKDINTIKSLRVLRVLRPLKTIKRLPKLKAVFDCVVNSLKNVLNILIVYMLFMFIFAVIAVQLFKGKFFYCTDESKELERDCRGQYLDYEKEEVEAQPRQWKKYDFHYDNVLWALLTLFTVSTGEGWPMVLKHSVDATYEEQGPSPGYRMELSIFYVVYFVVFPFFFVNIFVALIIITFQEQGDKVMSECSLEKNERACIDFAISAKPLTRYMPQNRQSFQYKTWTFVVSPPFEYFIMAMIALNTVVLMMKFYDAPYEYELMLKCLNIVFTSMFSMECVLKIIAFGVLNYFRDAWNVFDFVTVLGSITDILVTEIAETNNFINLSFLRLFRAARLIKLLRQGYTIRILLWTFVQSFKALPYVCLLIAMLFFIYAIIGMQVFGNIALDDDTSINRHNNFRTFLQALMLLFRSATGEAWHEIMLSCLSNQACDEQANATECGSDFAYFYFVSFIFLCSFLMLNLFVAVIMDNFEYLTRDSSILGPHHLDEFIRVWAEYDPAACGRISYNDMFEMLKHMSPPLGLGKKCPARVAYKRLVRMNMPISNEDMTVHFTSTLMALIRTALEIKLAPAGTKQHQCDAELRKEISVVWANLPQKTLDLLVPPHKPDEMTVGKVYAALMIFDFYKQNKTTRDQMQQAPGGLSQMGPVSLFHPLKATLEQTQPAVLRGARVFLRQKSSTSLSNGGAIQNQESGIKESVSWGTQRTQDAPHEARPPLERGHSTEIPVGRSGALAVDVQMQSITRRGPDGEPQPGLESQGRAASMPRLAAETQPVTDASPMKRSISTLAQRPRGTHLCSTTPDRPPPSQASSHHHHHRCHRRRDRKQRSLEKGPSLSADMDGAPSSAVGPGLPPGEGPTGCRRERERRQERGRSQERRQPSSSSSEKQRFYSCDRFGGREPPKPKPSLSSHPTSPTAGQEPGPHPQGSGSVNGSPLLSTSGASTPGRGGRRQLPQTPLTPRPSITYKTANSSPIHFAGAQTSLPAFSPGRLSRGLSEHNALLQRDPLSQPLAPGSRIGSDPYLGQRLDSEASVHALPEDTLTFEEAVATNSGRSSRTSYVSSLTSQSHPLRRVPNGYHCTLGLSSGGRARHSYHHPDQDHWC
T1 sequence (Q02410 whole entry): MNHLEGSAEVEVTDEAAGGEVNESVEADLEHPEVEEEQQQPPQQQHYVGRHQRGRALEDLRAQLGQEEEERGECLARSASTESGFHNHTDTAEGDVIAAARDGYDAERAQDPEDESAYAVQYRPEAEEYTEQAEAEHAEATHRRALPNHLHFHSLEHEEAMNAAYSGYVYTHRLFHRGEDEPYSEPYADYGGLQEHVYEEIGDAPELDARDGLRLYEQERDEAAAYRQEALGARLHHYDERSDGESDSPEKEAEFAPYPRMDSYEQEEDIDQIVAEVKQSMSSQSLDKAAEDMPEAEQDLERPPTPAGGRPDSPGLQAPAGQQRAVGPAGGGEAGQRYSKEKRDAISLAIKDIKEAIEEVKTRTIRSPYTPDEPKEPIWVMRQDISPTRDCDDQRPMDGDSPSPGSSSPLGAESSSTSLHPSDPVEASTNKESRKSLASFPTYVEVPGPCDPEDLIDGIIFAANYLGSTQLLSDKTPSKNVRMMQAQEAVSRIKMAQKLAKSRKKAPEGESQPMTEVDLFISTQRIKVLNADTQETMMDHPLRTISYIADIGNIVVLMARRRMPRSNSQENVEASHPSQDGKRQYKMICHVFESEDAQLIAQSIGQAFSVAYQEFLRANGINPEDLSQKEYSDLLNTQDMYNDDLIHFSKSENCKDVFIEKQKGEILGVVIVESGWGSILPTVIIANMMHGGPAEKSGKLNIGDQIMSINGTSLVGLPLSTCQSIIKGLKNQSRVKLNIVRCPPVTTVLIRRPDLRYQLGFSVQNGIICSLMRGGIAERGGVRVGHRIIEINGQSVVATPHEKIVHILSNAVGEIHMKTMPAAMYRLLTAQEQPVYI
Chain of Bcl-2-like protein 10 (Q9HD36 whole entry): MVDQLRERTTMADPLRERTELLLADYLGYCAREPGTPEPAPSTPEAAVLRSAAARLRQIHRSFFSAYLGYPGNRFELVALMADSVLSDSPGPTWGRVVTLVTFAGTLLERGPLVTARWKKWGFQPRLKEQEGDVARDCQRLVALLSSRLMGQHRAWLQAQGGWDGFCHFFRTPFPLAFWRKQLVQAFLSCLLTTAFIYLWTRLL
Chain of Tumor necrosis factor (P01375 whole entry, the tested form may be a part): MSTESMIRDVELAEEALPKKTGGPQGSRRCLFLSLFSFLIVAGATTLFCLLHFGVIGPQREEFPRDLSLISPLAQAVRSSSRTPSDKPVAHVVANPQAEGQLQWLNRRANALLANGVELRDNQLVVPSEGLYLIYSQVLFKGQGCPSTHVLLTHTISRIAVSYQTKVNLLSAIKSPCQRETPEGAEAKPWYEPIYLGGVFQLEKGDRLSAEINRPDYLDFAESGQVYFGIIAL
Chain of DNA dC->dU-editing enzyme APOBEC-3G (Q9HC16 whole entry): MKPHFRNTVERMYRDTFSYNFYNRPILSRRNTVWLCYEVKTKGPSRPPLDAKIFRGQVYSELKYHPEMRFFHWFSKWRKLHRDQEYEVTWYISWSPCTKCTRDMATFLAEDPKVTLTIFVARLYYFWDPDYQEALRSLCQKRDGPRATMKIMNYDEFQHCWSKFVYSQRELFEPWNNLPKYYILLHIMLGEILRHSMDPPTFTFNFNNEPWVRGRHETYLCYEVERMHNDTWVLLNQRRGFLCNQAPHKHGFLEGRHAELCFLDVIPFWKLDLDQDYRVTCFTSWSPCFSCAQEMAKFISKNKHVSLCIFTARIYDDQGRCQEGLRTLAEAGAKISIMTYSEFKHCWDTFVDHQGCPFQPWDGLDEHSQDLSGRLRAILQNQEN

IC50 (Bcl-2-like protein 10): > 100 µM (inactive)
Structure (SMILES): Cc1ccc(N2CN=c3s/c(=C\c4cccnc4)c(=O)n3C2)cc1

Structure (SMILES): Sc1nnc(-c2ccco2)n1-c1ccc(Br)cc1
IC50 [1]: > 100 µM (inactive)
IC50 [2]: 1.5 µM (active)

IC50 [3]: 46.1 µM (active)
IC50 (Large T antigen): > 100 µM (active)
IC50 [4]: 1.53 µM (active)
IC50 [5]: 18.2 µM (active)
Structure (SMILES): COc1ccc(CC(=O)n2[nH]c(=O)ccc2=O)cc1OC

EC50 [6]: > 55.7 µM (not active)
EC50 [7]: > 55.7 µM (not active)
Structure (SMILES): N#Cc1c(NCCO)ccc([N+](=O)[O-])c1NCCO

EC50 [8]: 0.625 µM (active)
AC50 (Paired box protein Pax-8): 2.86 µM (active)
Structure (SMILES): CCCN(CCC)Cc1c(C(=O)N/N=C/C(C)=C\c2ccco2)nnn1-c1nonc1N

IC50 [9]: > 64 µM (inactive)
IC50 [10]: 81 µM (active)
Structure (SMILES): O=C(C1CCN(Cc2cc(Cl)ccc2O)CC1)N1CCN(Cc2ccccc2)CC1

IC50 [11]: 7.4 µM (active)
Structure (SMILES): COc1ccc(Oc2c(CO)cnn(-c3ccc(C(C)C)cc3)c2=O)cc1

IC50 [12]: > 50 µM (not active)
IC50 [13]: > 50 µM (not active)
Structure (SMILES): Cc1no[n+]([O-])c1COc1ccccc1/C=C1\NC(=S)NC1=O

Structure (SMILES): COCc1c(N)c(C)nc(Cl)c1C#N
IC50 [3]: 13.9 µM (active)
IC50 [4]: > 50 µM (inactive)
IC50 [9]: 50 µM (inactive)
IC50 [2]: 13.3 µM (active)

Structure (SMILES): CCOC(=O)c1sc2nc(C)nc(Nc3ccccc3)c2c1C
CC50 (HeLa): > 99 µM (not active)

EC50 [6]: > 55.7 µM (not active)
EC50 [7]: > 55.7 µM (not active)
Structure (SMILES): CN(C)CC(c1ccccc1)c1ccccc1

Structure (SMILES): Cc1cc(NC(=O)c2ccc(C)s2)n(-c2nc3ccccc3[nH]2)n1
EC50 (HEK293 [14]): 4.06 µM (active)
EC50 [15]: 3.04 µM (active)
IC50 (HEK293 [16]): > 20 µM (inactive)
IC50 (HEK293 [17]): > 20 µM (inactive)
EC50 [18]: > 20 µM (inactive)
IC50 (HEK293 [19]): 4.57 µM (inactive)
IC50 (HEK293 [20]): > 20 µM (inactive)
EC50 (Streptococcus): 5.48 µM (active)
IC50 (Tumor necrosis factor): > 20 µM (inactive)
IC50 [21]: > 20 µM (inactive)
IC50 [22]: > 20 µM (inactive)
IC50 (HEK293 [23]): > 20 µM (inactive)

Structure (SMILES): CC(C)C(=O)Nc1nc2ccccc2n1Cc1ccc(Cl)cc1
IC50 (Tumor necrosis factor): > 20 µM (inactive)
IC50 [21]: 16.7 µM (active)
IC50 [22]: > 20 µM (inactive)
IC50 (HEK293 [23]): > 20 µM (inactive)

IC50 (Bcl-2-like protein 10): > 100 µM (inactive)
Structure (SMILES): c1nnnn1C12CC3CC(CC(C3)C1)C2
